In patent publication US10421774B2 (priority 2016, dated 2019):

Tests used:
Assay in all cases: microbe, parasite or virus in culture
Type in all cases: cell-based, HIV-1
[1] = test system: NLRepRlucP373S recombinant wild type (WT) virus; details: Human immunodeficiency virus 1, MT2, read-out: WT EC50
How it was run: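 Multiple-cycle assay: luciferase-normalized NL4-3-derived NLRepRlucP373S (Renilla luciferase in place of nef) infects MT-2 cells, 10,000 cells/well, with 3-fold compound dilutions at 1% DMSO, 4-5 days, 37 °C. EC50 and EC90 fitted by median effect equation against Renilla luminescence, with residual signal under 3 μM NFV as background.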

[2] = test system: A364V site directed mutant virus; details: Human immunodeficiency virus 1, MT2, read-out: A364V EC50
How it was run: (§1)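 Virus yield quantified by Renilla luciferase after 4–5 day culture at 37°C of MT-2 cells (10,000/well) with 3-fold serially diluted compound at 1% final DMSO. Reporter viruses were NL4-3 P373S derivatives bearing Gag A364V or V370A/ΔT371, inputs matched on luciferase endpoint.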

gag V370A/ΔT371 virus = details: Human immunodeficiency virus 1, MT2, read-out: V370A/ΔT371 EC50
How it was run: as §1

[3] = test system: T332S/V362I/Pr R41G virus; details: Human immunodeficiency virus 1, MT2, read-out: T332S/V362I/pr41G EC50
How it was run: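 Multiple-cycle susceptibility: MT-2 cells, 10,000 per well, exposed to 3-fold compound dilutions at 1% DMSO after infection with luciferase-normalized inoculum. Virus: NL4-3-derived Renilla reporter (Gag P373S) with Gag T332S/V362I and protease R41G. Readout Renilla luciferase after 4–5 days, 37 °C.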

Which EC50 [1] does the source give for `C=C(C)[C@@H]1CC[C@]2(NC[C@@H](O)CO)CC[C@]3(C)[C@H](CC[C@@H]4[C@@]5(C)CC=C(C6=CC[C@](COc7ncccc7C(N)=O)(C(=O)O)CC6)C(C)(C)[C@@H]5CC[C@]43C)[C@@H]12` [Example A8, (R)-1-(((3-carbamoylpyridin-2-yl)oxy)methyl)-4-((1R,3aS,5aR,5bR,7aR,11aS,11bR,13aR,13bR)-3a-(((R)-2,3-dihydroxypropyl)amino)-5a,5b,8,8,11a-pentamethyl-1-(prop-1-en-2-yl)-2,3,3a,4,5,5a,5b,6,7,7a,8,11,11a,11b,12,13,13a,13b-octadecahydro-1H-cyclopenta[a]chrysen-9-yl)cyclohex-3-enecarboxylic acid] here?
The EC50 was 4 nM.

What about the EC50 [2] of the same compound?
The EC50 was 176 nM.

What about the EC50 (gag V370A/ΔT371 virus) of the same compound?
The EC50 was 23 nM.

What about the EC50 [3] of the same compound?
Its EC50 is 23 nM.

Which results are given for `C=C(C)[C@@H]1CC[C@]2(NC[C@@H](O)COC)CC[C@]3(C)[C@H](CC[C@@H]4[C@@]5(C)CC=C(C6=CC[C@](COc7ncccc7C#N)(C(=O)O)CC6)C(C)(C)[C@@H]5CC[C@]43C)[C@@H]12` [Example A9, (R)-1-(((3-cyanopyridin-2-yl)oxy)methyl)-4-((1R,3aS,5aR,5bR,7aR,11aS,11bR,13aR,13bR)-3a-(((R)-2-hydroxy-3-methoxypropyl)amino)-5a,5b,8,8,11a-pentamethyl-1-(prop-1-en-2-yl)-2,3,3a,4,5,5a,5b,6,7,7a,8,11,11a,11b,12,13,13a,13b-octadecahydro-1H-cyclopentalalchrysen-9-yl)cyclohex-3-enecarboxylic acid]?
EC50 [1]: 3 nM; EC50 [2]: 300 nM; EC50 (gag V370A/ΔT371 virus): 12 nM; EC50 [3]: 12 nM

What does the source list for `C=C(C)[C@@H]1CC[C@]2(NC[C@H](O)COC)CC[C@]3(C)[C@H](CC[C@@H]4[C@@]5(C)CC=C(C6=CC[C@](COc7ncccc7C#N)(C(=O)O)CC6)C(C)(C)[C@@H]5CC[C@]43C)[C@@H]12` [Example A11, (R)-1-(((3-cyanopyridin-2-yl)oxy)methyl)-4-((1R,3aS,5aR,5bR,7aR,11aS,11bR,13aR,13bR)-3a-(((S)-2-hydroxy-3-methoxypropyl)amino)-5a,5b,8,8,11a-pentamethyl-1-(prop-1-en-2-yl)-2,3,3a,4,5,5a,5b,6,7,7a,8,11,11a,11b,12,13,13a,13b-octadecahydro-1H-cyclopentalalchrysen-9-yl)cyclohex-3-enecarboxylic acid]?
EC50 [1]: 11 nM; EC50 [2]: 281 nM; EC50 (gag V370A/ΔT371 virus): 17 nM; EC50 [3]: 17 nM

`C=C(C)[C@@H]1CC[C@]2(NC[C@H](O)COC)CC[C@]3(C)[C@H](CC[C@@H]4[C@@]5(C)CC=C(C6=CC[C@](COc7ncccc7C(N)=O)(C(=O)O)CC6)C(C)(C)[C@@H]5CC[C@]43C)[C@@H]12` [Example A12, (R)-1-(((3-carbamoylpyridin-2-yl)oxy)methyl)-4-((1R,3aS,5aR,5bR,7aR,11aS,11bR,13aR,13bR)-3a-(((S)-2-hydroxy-3-methoxypropyl)amino)-5a,5b,8,8,11a-pentamethyl-1-(prop-1-en-2-yl)-2,3,3a,4,5,5a,5b,6,7,7a,8,11,11a,11b,12,13,13a,13b-octadecahydro-1H-cyclopenta[a]chrysen-9-yl)cyclohex-3-enecarboxylic acid] was tested. Which EC50 [1] did it give?
Its EC50 is 2 nM.

And the EC50 [2]?
Its EC50 is 69 nM.

And the EC50 (gag V370A/ΔT371 virus)?
Its EC50 is 59 nM.

What about the EC50 [3] of the same compound?
Its EC50 is 59 nM.

Which results are given for `C=C(C)[C@@H]1CC[C@]2(NC[C@@](C)(O)CO)CC[C@]3(C)[C@H](CC[C@@H]4[C@@]5(C)CC=C(C6=CC[C@](COc7ncccc7C#N)(C(=O)O)CC6)C(C)(C)[C@@H]5CC[C@]43C)[C@@H]12` [Example A13, (R)-1-(((3-cyanopyridin-2-yl)oxy)methyl)-4-((1R,3aS,5aR,5bR,7aR,11aS,11bR,13aR,13bR)-3a-(((R)-2,3-dihydroxy-2-methylpropyl)amino)-5a,5b,8,8,11a-pentamethyl-1-(prop-1-en-2-yl)-2,3,3a,4,5,5a,5b,6,7,7a,8,11,11a,11b,12,13,13a,13b-octadecahydro-1H-cyclopentalalchrysen-9-yl)cyclohex-3-enecarboxylic acid]?
EC50 [1]: 2 nM; EC50 [2]: 831 nM; EC50 (gag V370A/ΔT371 virus): 27 nM; EC50 [3]: 27 nM

Which EC50 [1] does the source give for `C=C(C)[C@@H]1CC[C@]2(NC[C@@](C)(O)CO)CC[C@]3(C)[C@H](CC[C@@H]4[C@@]5(C)CC=C(C6=CC[C@](COc7ncccc7C(N)=O)(C(=O)O)CC6)C(C)(C)[C@@H]5CC[C@]43C)[C@@H]12` [Example A14, (R)-1-(((3-carbamoylpyridin-2-yl)oxy)methyl)-4-((1R,3aS,5aR,5bR,7aR,11aS,11bR,13aR,13bR)-3a-(((R)-2,3-dihydroxy-2-methylpropyl)amino)-5a,5b,8,8,11a-pentamethyl-1-(prop-1-en-2-yl)-2,3,3a,4,5,5a,5b,6,7,7a,8,11,11a,11b,12,13,13a,13b-octadecahydro-1H-cyclopenta[a]chrysen-9-yl)cyclohex-3-enecarboxylic acid] here?
The EC50 was 5 nM.

And the EC50 [2]?
Its EC50 is 114 nM.

And the EC50 (gag V370A/ΔT371 virus)?
The EC50 was 110 nM.

What about the EC50 [3] of the same compound?
The EC50 was 110 nM.

With `C=C(C)[C@@H]1CC[C@]2(NC[C@@H](O)C(=O)O)CC[C@]3(C)[C@H](CC[C@@H]4[C@@]5(C)CC=C(C6=CC[C@](COc7ncccc7C#N)(C(=O)O)CC6)C(C)(C)[C@@H]5CC[C@]43C)[C@@H]12` [Example A15, (R)-4-((1R,3aS,5aR,5bR,7aR,11aS,11bR,13aR,13bR)-3a-(((R)-2-carboxy-2-hydroxyethyl)amino)-5a,5b,8,8,11a-pentamethyl-1-(prop-1-en-2-yl)-2,3,3a,4,5,5a,5b,6,7,7a,8,11,11a,11b,12,13,13a,13b-octadecahydro-1H-cyclopenta[a]chrysen-9-yl)-1-(((3-cyanopyridin-2-yl)oxy)methyl)cyclohex-3-enecarboxylic acid] as the compound, how does the EC50 [1] read?
The EC50 was 3 nM.

What about the EC50 [2] of the same compound?
The EC50 was 794 nM.

And the EC50 (gag V370A/ΔT371 virus)?
Its EC50 is 10 nM.

And the EC50 [3]?
The EC50 was 10 nM.

With `C=C(C)[C@@H]1CC[C@]2(NC[C@@H](O)C(=O)O)CC[C@]3(C)[C@H](CC[C@@H]4[C@@]5(C)CC=C(C6=CC[C@](COc7ncccc7C(=O)O)(C(=O)O)CC6)C(C)(C)[C@@H]5CC[C@]43C)[C@@H]12` [Example A16, 2-(((R)-1-carboxy-4-((1R,3aS,5aR,5bR,7aR,11aS,11bR,13aR,13bR)-3a-(((R)-2-carboxy-2-hydroxyethyl)amino)-5a,5b,8,8,11a-pentamethyl-1-(prop-1-en-2-yl)-2,3,3a,4,5,5a,5b,6,7,7a,8,11,11a,11b,12,13,13a,13b-octadecahydro-1H-cyclopenta[a]chrysen-9-yl)cyclohex-3-en-1-yl)methoxy)nicotinic acid] as the compound, how does the EC50 [1] read?
Its EC50 is 10 nM.

And the EC50 [2]?
Its EC50 is 139 nM.

What about the EC50 (gag V370A/ΔT371 virus) of the same compound?
Its EC50 is 68 nM.

What about the EC50 [3] of the same compound?
The EC50 was 68 nM.

With `C=C(C)[C@@H]1CC[C@]2(NC[C@H](O)C(=O)O)CC[C@]3(C)[C@H](CC[C@@H]4[C@@]5(C)CC=C(C6=CC[C@](COc7ncccc7C#N)(C(=O)O)CC6)C(C)(C)[C@@H]5CC[C@]43C)[C@@H]12` [Example A17, (R)-4-((1R,3aS,5aR,5bR,7aR,11aS,11bR,13aR,13bR)-3a-(((S)-2-carboxy-2-hydroxyethyl)amino)-5a,5b,8,8,11a-pentamethyl-1-(prop-1-en-2-yl)-2,3,3a,4,5,5a,5b,6,7,7a,8,11,11a,11b,12,13,13a,13b-octadecahydro-1H-cyclopenta[a]chrysen-9-yl)-1-(((3-cyanopyridin-2-yl)oxy)methyl)cyclohex-3-enecarboxylic acid] as the compound, how does the EC50 [1] read?
The EC50 was 3 nM.

What about the EC50 [2] of the same compound?
The EC50 was 3000 nM.

And the EC50 (gag V370A/ΔT371 virus)?
The EC50 was 15 nM.

And the EC50 [3]?
Its EC50 is 15 nM.

`C=C(C)[C@@H]1CC[C@]2(NC[C@H](O)C(=O)O)CC[C@]3(C)[C@H](CC[C@@H]4[C@@]5(C)CC=C(C6=CC[C@](COc7ncccc7C(N)=O)(C(=O)O)CC6)C(C)(C)[C@@H]5CC[C@]43C)[C@@H]12` [Example A18] was tested. Which EC50 [1] did it give?
The EC50 was 8 nM.

What about the EC50 [2] of the same compound?
Its EC50 is 192 nM.

And the EC50 (gag V370A/ΔT371 virus)?
The EC50 was 27 nM.

What about the EC50 [3] of the same compound?
The EC50 was 27 nM.

Which EC50 [1] does the source give for `C=C(C)[C@@H]1CC[C@]2(NCC(C)(O)C(=O)O)CC[C@]3(C)[C@H](CC[C@@H]4[C@@]5(C)CC=C(C6=CC[C@](COc7ncccc7C#N)(C(=O)O)CC6)C(C)(C)[C@@H]5CC[C@]43C)[C@@H]12` (stereo partly drawn) [Example A19, (1R)-4-((1R,3aS,5aR,5bR,7aR,11aS,11bR,13aR,13bR)-3a-((2-carboxy-2-hydroxypropyl)amino)-5a,5b,8,8,11a-pentamethyl-1-(prop-1-en-2-yl)-2,3,3a,4,5,5a,5b,6,7,7a,8,11,11a,11b,12,13,13a,13b-octadecahydro-1H-cyclopenta[a]chrysen-9-yl)-1-(((3-cyanopyridin-2-yl)oxy)methyl)cyclohex-3-enecarboxylic acid] here?
Its EC50 is 3 nM.

And the EC50 [2]?
Its EC50 is over 50 nM.

And the EC50 (gag V370A/ΔT371 virus)?
Its EC50 is 20 nM.

What about the EC50 [3] of the same compound?
The EC50 was 20 nM.
